According to ChEMBL document CHEMBL1201862, “PubChem BioAssay data set” (2004):
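A five-concentration, 48-hour dose response in 96-well plates underlies each endpoint, interpolated linearly between surrounding concentrations. At the GI50, growth is halved.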 Active and inactive are the calls of the source. Cut-off read from the data, not from the text of the source: active = GI50 up to about 1.1 µM and inactive = higher.

Assays:
Assay in all cases: NCI anticancer screen, dose series, 48 h
UACC-257 = test system: UACC-257
TK-10 = test system: TK-10
SN12C = test system: SN12C
HCC 2998 = test system: HCC 2998
SK-MEL-2 = test system: SK-MEL-2
OVCAR-8 = test system: OVCAR-8
SF-539 = test system: SF-539
K562 = test system: K562
A549 = test system: A549
RXF 393 = test system: RXF 393
MDA-MB-435 = test system: MDA-MB-435
SNB-75 = test system: SNB-75
IGROV-1 = test system: IGROV-1
HOP-62 = test system: HOP-62
LOX IMVI = test system: LOX IMVI
NCI/ADR-RES = test system: NCI/ADR-RES
ACHN = test system: ACHN
CCRF-CEM = test system: CCRF-CEM
MCF7 = test system: MCF7
Malme-3M = test system: Malme-3M
SR = test system: SR
SF-295 = test system: SF-295
HL-60 = test system: HL-60
A498 = test system: A498
KM12 = test system: KM12
UO-31 = test system: UO-31
Hs-578T = test system: Hs-578T
CAKI-1 = test system: CAKI-1
NCI-H23 = test system: NCI-H23
786-0 = test system: 786-0
HT-29 = test system: HT-29
OVCAR-4 = test system: OVCAR-4
SK-OV-3 = test system: SK-OV-3
U-251 = test system: U-251
SK-MEL-28 = test system: SK-MEL-28
COLO 205 = test system: COLO 205
OVCAR-3 = test system: OVCAR-3
HCT-116 = test system: HCT-116
HOP-92 = test system: HOP-92
NCI-H522 = test system: NCI-H522
NCI-H460 = test system: NCI-H460
T47D = test system: T47D
HCT-15 = test system: HCT-15
SW-620 = test system: SW-620
OVCAR-5 = test system: OVCAR-5
MDA-N = test system: MDA-N
M14 = test system: M14
SK-MEL-5 = test system: SK-MEL-5
RPMI-8226 = test system: RPMI-8226
SF-268 = test system: SF-268
PC-3 = test system: PC-3
DU-145 = test system: DU-145
MOLT-4 = test system: MOLT-4
SNB-19 = test system: SNB-19
UACC-62 = test system: UACC-62
NCI-H226 = test system: NCI-H226
BT-549 = test system: BT-549
EKVX = test system: EKVX
MDA-MB-231 = test system: MDA-MB-231

With `C=C(CC)C(=O)c1ccc(OCC(=O)O)c(Cl)c1Cl` [ETHACRYNIC ACID] the GI50 (UACC-257) was 18.9 µM (inactive), the GI50 (TK-10) was 16.1 µM (inactive) and the GI50 (SN12C) was 20 µM (inactive). The GI50 (HCC 2998) was 17.8 µM (inactive), the GI50 (SK-MEL-2) was 17.1 µM (inactive) and the GI50 (OVCAR-8) was 17.5 µM (inactive). The GI50 (SF-539) was 7.87 µM (inactive), the GI50 (K562) was 53 µM (inactive) and the GI50 (A549) was > 91.8 µM (inactive). The GI50 (RXF 393) was 18.2 µM (inactive), the GI50 (MDA-MB-435) was 17.5 µM (inactive) and the GI50 (SNB-75) was 21.8 µM (inactive). The GI50 (IGROV-1) was 22 µM (inactive), the GI50 (HOP-62) was 20.5 µM (inactive) and the GI50 (LOX IMVI) was 14.7 µM (inactive). For the same compound, the GI50 (NCI/ADR-RES) was 26.7 µM (inactive), the GI50 (ACHN) was 26.8 µM (inactive) and the GI50 (CCRF-CEM) was 35.8 µM (inactive). For the same compound, the GI50 (MCF7) was 6.05 µM (inactive), the GI50 (Malme-3M) was 16.9 µM (inactive) and the GI50 (SR) was 31.6 µM (inactive). For the same compound, the GI50 (SF-295) was 35.6 µM (inactive), the GI50 (HL-60) was 28.3 µM (inactive) and the GI50 (A498) was 35.8 µM (inactive). The GI50 (KM12) was 5.5 µM (inactive), the GI50 (UO-31) was 19.5 µM (inactive) and the GI50 (Hs-578T) was 20.5 µM (inactive). The GI50 (CAKI-1) was 14.9 µM (inactive), the GI50 (NCI-H23) was 25 µM (inactive) and the GI50 (786-0) was 6.93 µM (inactive). For the same compound, the GI50 (HT-29) was 17.9 µM (inactive), the GI50 (OVCAR-4) was 20 µM (inactive) and the GI50 (SK-OV-3) was 48.1 µM (inactive). For the same compound, the GI50 (U-251) was 16 µM (inactive), the GI50 (SK-MEL-28) was 17.6 µM (inactive) and the GI50 (COLO 205) was 19 µM (inactive). The GI50 (OVCAR-3) was 16.1 µM (inactive), the GI50 (HCT-116) was 23.1 µM (inactive) and the GI50 (HOP-92) was 12.2 µM (inactive). For the same compound, the GI50 (NCI-H522) was 14.8 µM (inactive), the GI50 (NCI-H460) was 44.3 µM (inactive) and the GI50 (T47D) was 9.35 µM (inactive). The GI50 (HCT-15) was 22.6 µM, the GI50 (SW-620) was 19.3 µM (inactive) and the GI50 (OVCAR-5) was 29.8 µM (inactive). The GI50 (MDA-N) was 23.1 µM (inactive), the GI50 (M14) was 18.5 µM (inactive) and the GI50 (SK-MEL-5) was 25.8 µM (inactive). The GI50 (RPMI-8226) was 14.5 µM (inactive), the GI50 (SF-268) was 16.7 µM (inactive) and the GI50 (PC-3) was 24.9 µM (inactive). For the same compound, the GI50 (DU-145) was 29.5 µM (inactive), the GI50 (MOLT-4) was 20.2 µM (inactive) and the GI50 (SNB-19) was 15.6 µM (inactive). The GI50 (UACC-62) was 15.2 µM (inactive), the GI50 (NCI-H226) was 15.5 µM (inactive) and the GI50 (BT-549) was 4.99 µM (inactive). For the same compound, the GI50 (EKVX) was 17.5 µM (inactive) and the GI50 (MDA-MB-231) was 19.6 µM (inactive).
`CN1CCc2cc(N)cc3c2C1Cc1ccc2c(c1-3)OCO2` (stereo not drawn) was tested, and the GI50 (UACC-257) was 22.5 µM (inactive), the GI50 (TK-10) was 45.8 µM (inactive) and the GI50 (SN12C) was 26.9 µM (inactive). The GI50 (HCC 2998) was 19.6 µM (inactive), the GI50 (SK-MEL-2) was 36.1 µM (inactive) and the GI50 (OVCAR-8) was 21.6 µM (inactive). The GI50 (SF-539) was 33.9 µM (inactive), the GI50 (K562) was 27 µM (inactive) and the GI50 (A549) was 37.2 µM (inactive). For the same compound, the GI50 (RXF 393) was 27.4 µM (inactive), the GI50 (MDA-MB-435) was 9.59 µM (inactive) and the GI50 (SNB-75) was 31.9 µM (inactive). The GI50 (IGROV-1) was 20.5 µM (inactive), the GI50 (HOP-62) was 34.8 µM (inactive) and the GI50 (LOX IMVI) was 17.7 µM (inactive). The GI50 (NCI/ADR-RES) was 24.3 µM (inactive), the GI50 (ACHN) was 26.3 µM (inactive) and the GI50 (CCRF-CEM) was 1.97 µM (inactive). The GI50 (MCF7) was 29.4 µM (inactive), the GI50 (Malme-3M) was 20.9 µM (inactive) and the GI50 (SR) was 11 µM (inactive). For the same compound, the GI50 (SF-295) was 31.9 µM (inactive), the GI50 (HL-60) was 28.4 µM (inactive) and the GI50 (A498) was 49.9 µM (inactive). For the same compound, the GI50 (KM12) was 13.5 µM (inactive), the GI50 (UO-31) was 35.2 µM (inactive) and the GI50 (Hs-578T) was 28.2 µM (inactive). For the same compound, the GI50 (CAKI-1) was 41.5 µM (inactive), the GI50 (NCI-H23) was 34 µM (inactive) and the GI50 (786-0) was 26.9 µM (inactive). For the same compound, the GI50 (HT-29) was 30.7 µM (inactive), the GI50 (OVCAR-4) was 30 µM (inactive) and the GI50 (SK-OV-3) was 44.9 µM (inactive). The GI50 (U-251) was 36.8 µM (inactive), the GI50 (SK-MEL-28) was 27.2 µM (inactive) and the GI50 (COLO 205) was 30.1 µM (inactive). For the same compound, the GI50 (OVCAR-3) was 27.1 µM (inactive), the GI50 (HCT-116) was 27.7 µM (inactive) and the GI50 (HOP-92) was 17.7 µM (inactive). The GI50 (NCI-H522) was 18.1 µM (inactive), the GI50 (NCI-H460) was 28.9 µM (inactive) and the GI50 (T47D) was 36.1 µM (inactive). For the same compound, the GI50 (HCT-15) was 32.3 µM, the GI50 (SW-620) was 31 µM (inactive) and the GI50 (OVCAR-5) was 42.4 µM (inactive). The GI50 (MDA-N) was 19.2 µM (inactive), the GI50 (M14) was 30.8 µM (inactive) and the GI50 (SK-MEL-5) was 20.4 µM (inactive). For the same compound, the GI50 (RPMI-8226) was 15.9 µM (inactive), the GI50 (SF-268) was 33.5 µM (inactive) and the GI50 (PC-3) was 42.7 µM (inactive). For the same compound, the GI50 (DU-145) was 32.8 µM (inactive), the GI50 (MOLT-4) was 1.46 µM (inactive) and the GI50 (SNB-19) was 61.8 µM (inactive). The GI50 (UACC-62) was 22.8 µM (inactive), the GI50 (NCI-H226) was 34 µM (inactive) and the GI50 (BT-549) was 43 µM (inactive). The GI50 (EKVX) was 50.9 µM (inactive) and the GI50 (MDA-MB-231) was 49.2 µM (inactive).
